Test results: patent US20130217664A1, “NOVEL COMPOUNDS USEFUL FOR THE TREATMENT OF DEGENERATIVE AND INFLAMMATORY DISEASES” (priority 2012, published 2013)

Assays:
Type in all cases: biochemical
human JAK2 = target: T1, human JAK2 (Homo sapiens, UniProt O60674); assay: JAK2 inhibition assay (polyGT substrate / Ulight-JAK1 peptide); settings: recombinant human JAK2 catalytic domain; polyGT or Ulight-JAK1 peptide assay
T1 construct: catalytic domain (amino acids 808-1132; catalog number PV4210); GST; purchased Invitrogen PV4210
Summary of the method: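 Radiometric: 0.025 mU JAK2 with 2.5 μg polyGT, 1 μM ATP plus ^33P-ATP in MOPS pH 7.5 buffer, 1% DMSO, 90 min at 30° C.; filter counting. Alternative TR-FRET format with Ulight-JAK1 peptide, 60 min at room temperature, Eu-anti-phosphotyrosine detection.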

human JAK3 = target: T2, human JAK3 (Homo sapiens, UniProt P52333); assay: JAK3 inhibition assay; settings: recombinant human JAK3 catalytic domain; polyGT substrate
T2 construct: catalytic domain (amino acids 781-1124; catalog number PV3855); purchased Invitrogen PV3855
Description: 1.3 JAK3 Inhibition Assay
0.5 ng JAK3 protein was incubated with 2.5 μg polyGT substrate (Sigma catalog number P0275) in kinase reaction buffer (25 mM Tris pH 7.5, 0.5 mM EGTA, 10 mM MgCl2, 2.5 mM DTT, 0.5 mM Na3VO4, 5 mM b-glycerolphosphate, 0.01% Triton X-100, 1 μM non-radioactive ATP, 0.25 μCi 33P-gamma-ATP (GE Healthcare, catalog number AH9968) final concentrations) with or without 5 μL containing test compound or vehicle (DMSO, 1% final concentration), in a total volume of 25 μL, in a polypropylene 96-well plate (Greiner, V-bottom). After 45 min at 30° C., reactions were stopped by adding 25 μL/well of 150 mM phosphoric acid. […] Plates were washed 6 times with 300 μL per well of a 75 mM phosphoric acid solution and the bottom of the plates was sealed. 40 μL/well of Microscint-20 was added, the top of the plates was sealed and readout was performed using the Topcount (Perkin Elmer). Kinase activity was calculated by subtracting counts per min (cpm) obtained in the presence of a positive control inhibitor (10 μM staurosporine) from cpm obtained in the presence of vehicle. The ability of a test compound to inhibit this activity was determined as:
(§1) Percentage inhibition=((cpm determined for sample with test compound present−cpm determined for sample with positive control inhibitor)divided by(cpm determined in the presence of vehicle−cpm determined for sample with positive control inhibitor))*100.
Dose dilution series were prepared for the compounds enabling the testing of dose-response effects in the JAK3 assay and the calculation of the IC50 for each compound. Each compound was routinely tested at concentration of 20 μM followed by a 1/5 serial dilution, 10 points in a final concentration of 1% DMSO.

human JAK1 = target: T3, human JAK1 (Homo sapiens, UniProt P23458); assay: JAK1 inhibition assay (polyGT substrate / Ulight-JAK1 peptide); settings: recombinant human JAK1 catalytic domain; polyGT or Ulight-JAK1 peptide assay
T3 construct: catalytic domain, amino acids 866-1154; catalog number PV4774; purchased Invitrogen PV4774
Summary of the method: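 Two formats. PolyGT radiometric: 45 min at 30 °C, stopped with phosphoric acid, counted as cpm. Ulight-JAK1 peptide: 60 min at room temperature, stopped with Eu-anti-phosphotyrosine/EDTA, read as RFU. Percent inhibition normalised to vehicle and 10 μM staurosporine.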

human TYK2 = target: T4, human TYK2 (Homo sapiens, UniProt P29597); assay: TYK2 inhibition assay; settings: recombinant human TYK2 catalytic domain, polyGT substrate
T4 construct: catalytic domain (amino acids 871-1187; catalog number 08-147); purchased Carna Biosciences 08-147
T4 sequence (P29597 871-1187): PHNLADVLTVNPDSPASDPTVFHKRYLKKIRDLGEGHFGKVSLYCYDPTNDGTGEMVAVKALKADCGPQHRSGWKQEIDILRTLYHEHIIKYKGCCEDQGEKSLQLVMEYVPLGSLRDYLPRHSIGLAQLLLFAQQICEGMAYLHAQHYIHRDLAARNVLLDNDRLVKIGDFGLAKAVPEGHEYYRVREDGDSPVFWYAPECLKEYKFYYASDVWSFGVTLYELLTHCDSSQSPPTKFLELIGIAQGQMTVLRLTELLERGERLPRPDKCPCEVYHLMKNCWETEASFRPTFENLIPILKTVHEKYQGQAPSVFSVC
Description: 1.4 TYK2 Inhibition Assay
After 90 min at 30° C., reactions were stopped by adding 25 μL/well of 150 mM phosphoric acid. […] Plates were washed 6 times with 300 μL per well of a 75 mM phosphoric acid solution and the bottom of the plates was sealed. 40 μL/well of Microscint-20 was added, the top of the plates was sealed and readout was performed using the Topcount (Perkin Elmer). Kinase activity was calculated by subtracting counts per min (cpm) obtained in the presence of a positive control inhibitor (10 μM staurosporine) from cpm obtained in the presence of vehicle. The ability of a test compound to inhibit this activity was determined as:
as §1
Dose dilution series were prepared for the compounds enabling the testing of dose-response effects in the TYK2 assay and the calculation of the IC50 for each compound.

T2 sequence (P52333 781-1124): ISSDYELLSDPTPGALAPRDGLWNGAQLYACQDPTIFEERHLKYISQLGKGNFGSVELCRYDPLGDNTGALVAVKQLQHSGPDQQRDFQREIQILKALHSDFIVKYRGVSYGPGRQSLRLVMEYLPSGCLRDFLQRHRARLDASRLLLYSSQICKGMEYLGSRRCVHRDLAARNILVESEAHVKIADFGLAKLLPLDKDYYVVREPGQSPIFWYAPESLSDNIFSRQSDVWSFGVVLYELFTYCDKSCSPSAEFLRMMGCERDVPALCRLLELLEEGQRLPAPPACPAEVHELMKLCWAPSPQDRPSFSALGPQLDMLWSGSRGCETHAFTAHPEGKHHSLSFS
T1 sequence (O60674 808-1132): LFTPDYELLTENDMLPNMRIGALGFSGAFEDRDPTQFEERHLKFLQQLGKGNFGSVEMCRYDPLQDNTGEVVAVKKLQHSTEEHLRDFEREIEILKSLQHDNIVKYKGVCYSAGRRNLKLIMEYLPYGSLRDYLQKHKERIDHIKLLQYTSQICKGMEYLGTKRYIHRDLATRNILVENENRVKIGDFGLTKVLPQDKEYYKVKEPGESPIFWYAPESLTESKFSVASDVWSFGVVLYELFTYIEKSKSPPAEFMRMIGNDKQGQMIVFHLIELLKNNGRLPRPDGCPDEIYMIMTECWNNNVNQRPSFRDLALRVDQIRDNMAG
T3 sequence (P23458 866-1154): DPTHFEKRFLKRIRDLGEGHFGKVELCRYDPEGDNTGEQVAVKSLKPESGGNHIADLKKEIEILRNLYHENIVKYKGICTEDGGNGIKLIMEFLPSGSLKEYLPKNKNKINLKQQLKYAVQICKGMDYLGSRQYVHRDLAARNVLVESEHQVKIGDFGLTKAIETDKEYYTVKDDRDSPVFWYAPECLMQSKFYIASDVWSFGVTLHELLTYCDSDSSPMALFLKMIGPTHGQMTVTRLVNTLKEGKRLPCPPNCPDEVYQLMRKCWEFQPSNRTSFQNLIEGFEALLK

Structure (SMILES): CCC(=O)N1CC(c2cc(CC)c(N(C)c3cc4c(cn3)ncn4C)cn2)C1 [Compound 336, 1-(3-{4-Ethyl-5-[methyl-(1-methyl-1H-imidazo[4,5-c]pyridin-6-yl)-amino]-pyridin-2-yl}-azetidin-1-yl)-propan-1-one]
- IC50 (human JAK2): > 1000 nM
- IC50 (human JAK3): > 1 µM
- IC50 (human JAK1): 0.01 to 100 nM
- IC50 (human TYK2): > 1 µM

Structure (SMILES): CCc1cc(C2CN(C(=O)CCC(F)(F)F)C2)ncc1N(C)c1cc2c(cn1)ncn2C [Compound 338, 1-(3-{4-Ethyl-5-[methyl-(1-methyl-1H-imidazo[4,5-c]pyridin-6-yl)-amino]-pyridin-2-yl}-azetidin-1-yl)-4,4,4-trifluoro-butan-1-one]
- IC50 (human JAK2): > 1000 nM
- IC50 (human JAK3): > 1 µM
- IC50 (human JAK1): 501 to 1000 nM
- IC50 (human TYK2): > 1 µM

Structure (SMILES): CCc1cc(C2CN(C(=O)OC)C2)ncc1N(C)c1cc2c(cn1)ncn2C [Compound 339, 3-{4-Ethyl-5-[methyl-(1-methyl-1H-imidazo[4,5-c]pyridin-6-yl)-amino]-pyridin-2-yl}-azetidine-1-carboxylic acid methyl ester]
- IC50 (human JAK2): 101 to 500 nM
- IC50 (human JAK3): > 1 µM
- IC50 (human JAK1): 0.01 to 100 nM
- IC50 (human TYK2): > 1 µM

Structure (SMILES): CCc1cc(C2CN(C(=O)C3CC(F)(F)C3)C2)ncc1N(C)c1cc2c(cn1)ncn2C [Compound 340]
- IC50 (human JAK2): > 1000 nM
- IC50 (human JAK3): > 1 µM
- IC50 (human JAK1): 101 to 500 nM
- IC50 (human TYK2): > 1 µM

Structure (SMILES): CN(c1ccc(/C=C/C#N)cc1)c1cc2c(cn1)ncn2C [Compound 345, (E)-3-{4-[Methyl-(1-methyl-1H-imidazo[4,5-c]pyridin-6-yl)-amino]-phenyl}-acrylonitrile]
- IC50 (human JAK2): 501 to 1000 nM
- IC50 (human JAK3): > 1 µM
- IC50 (human JAK1): 101 to 500 nM
- IC50 (human TYK2): > 1 µM

Structure (SMILES): CCc1cc(C2CN(C(=O)C3(C#N)CC3)C2)ccc1N(C)c1cc2c(cn1)ncn2C [Compound 348, 1-(3-{3-Ethyl-4-[methyl-(1-methyl-1H-imidazo[4,5-c]pyridin-6-yl)-amino]-phenyl}-azetidine-1-carbonyl)-cyclopropanecarbonitrile]
- IC50 (human JAK2): 501 to 1000 nM
- IC50 (human JAK3): > 1 µM
- IC50 (human JAK1): 101 to 500 nM
- IC50 (human TYK2): > 1 µM

Structure (SMILES): CN(c1cc2c(cn1)ncn2C)c1ccc(CN(CC#N)S(C)(=O)=O)cc1F [Compound 355]
- IC50 (human JAK2): 0.01 to 100 nM
- IC50 (human JAK3): 0.101 to 0.5 µM
- IC50 (human JAK1): 0.01 to 100 nM
- IC50 (human TYK2): 0.101 to 0.5 µM

Structure (SMILES): COCN(Cc1ccc(N(C)c2cc3c(cn2)ncn3C)c(F)c1)S(C)(=O)=O [Compound 359, N-{3-Fluoro-4-[methyl-(1-methyl-1H-imidazo[4,5-c]pyridin-6-yl)-amino]-benzyl}-N-methoxymethyl-methanesulfonamide]
- IC50 (human JAK2): 101 to 500 nM
- IC50 (human JAK3): > 1 µM
- IC50 (human JAK1): 101 to 500 nM
- IC50 (human TYK2): > 1 µM

Structure (SMILES): CN(c1cc2c(cn1)ncn2C)c1ccc(CN(CC2CC2)S(C)(=O)=O)cc1F [Compound 360]
- IC50 (human JAK2): 101 to 500 nM
- IC50 (human JAK3): > 1 µM
- IC50 (human JAK1): 101 to 500 nM
- IC50 (human TYK2): > 1 µM

Structure (SMILES): CN(c1cc2c(cn1)ncn2C)c1ccc(C2CN(C(=O)N3CCC3)C2)cc1OC(F)F [Compound 366, Azetidin-1-yl-(3-{3-difluoromethoxy-4-[methyl-(1-methyl-1H-imidazo[4,5-c]pyridin-6-yl)-amino]-phenyl}-azetidin-1-yl)-methanone]
- IC50 (human JAK2): > 1000 nM
- IC50 (human JAK3): > 1 µM
- IC50 (human JAK1): 501 to 1000 nM
- IC50 (human TYK2): > 1 µM

Structure (SMILES): CN(c1cc2c(cn1)ncn2C)c1ccc(C2CN(C(=O)N3CCCCC3)C2)cc1OC(F)F [Compound 367, (3-{3-Difluoromethoxy-4-[methyl-(1-methyl-1H-imidazo[4,5-c]pyridin-6-yl)-amino]-phenyl}-azetidin-1-yl)-piperidin-1-yl-methanone]
- IC50 (human JAK2): > 1000 nM
- IC50 (human JAK3): > 1 µM
- IC50 (human JAK1): 501 to 1000 nM
- IC50 (human TYK2): > 1 µM

Structure (SMILES): CN(c1cc2c(cn1)ncn2C)c1ccc(C2CN(C(=O)N3CCOCC3)C2)cc1OC(F)F [Compound 368]
- IC50 (human JAK2): > 1000 nM
- IC50 (human JAK3): > 1 µM
- IC50 (human JAK1): 501 to 1000 nM
- IC50 (human TYK2): > 1 µM

Structure (SMILES): CN(c1cc2c(cn1)ncn2C)c1ccc(C2CN(S(=O)(=O)N3CCOCC3)C2)cc1OC(F)F [Compound 371, {2-Difluoromethoxy-4-[1-(morpholine-4-sulfonyl)-azetidin-3-yl]-phenyl}-methyl-(1-methyl-1H-imidazo[4,5-c]pyridin-6-yl)-amine]
- IC50 (human JAK2): 101 to 500 nM
- IC50 (human JAK3): > 1 µM
- IC50 (human JAK1): 0.01 to 100 nM
- IC50 (human TYK2): > 1 µM

Structure (SMILES): CN(c1cc2c(cn1)ncn2C)c1ccc(C2CN(CC(N)=O)C2)cc1OC(F)F [Compound 374, 2-(3-{3-Difluoromethoxy-4-[methyl-(1-methyl-1H-imidazo[4,5-c]pyridin-6-yl)-amino]-phenyl}-azetidin-1-yl)-acetamide]
- IC50 (human JAK2): 101 to 500 nM
- IC50 (human JAK3): > 1 µM
- IC50 (human JAK1): 101 to 500 nM
- IC50 (human TYK2): > 1 µM

Structure (SMILES): CCc1cc(CN2CC(C)(C)C2)ccc1N(C)c1cc2c(cn1)ncn2C [Compound 382, [4-(3,3-Dimethyl-azetidin-1-ylmethyl)-2-ethyl-phenyl]-methyl-(1-methyl-1H-imidazo[4,5-c]pyridin-6-yl)-amine]
- IC50 (human JAK2): > 1000 nM
- IC50 (human JAK3): > 1 µM
- IC50 (human JAK1): 101 to 500 nM
- IC50 (human TYK2): > 1 µM

Structure (SMILES): CCc1cc(CC(=O)N2CC(C)(C)C2)ccc1N(C)c1cc2c(cn1)ncn2C [Compound 386, 1-(3,3-Dimethyl-azetidin-1-yl)-2-{3-ethyl-4-[methyl-(1-methyl-1H-imidazo[4,5-c]pyridin-6-yl)-amino]-phenyl}-ethanone]
- IC50 (human JAK2): > 1000 nM
- IC50 (human JAK3): > 1 µM
- IC50 (human JAK1): 101 to 500 nM
- IC50 (human TYK2): > 1 µM

Structure (SMILES): CCc1cc(N2CC(C(=O)OC)C2)ncc1N(C)c1cc2c(cn1)ncn2C [Compound 399, 1-{4-Ethyl-5-[methyl-(1-methyl-1H-imidazo[4,5-c]pyridin-6-yl)-amino]-pyridin-2-yl}-azetidine-3-carboxylic acid methyl ester]
- IC50 (human JAK2): 101 to 500 nM
- IC50 (human JAK3): > 1 µM
- IC50 (human JAK1): 0.01 to 100 nM
- IC50 (human TYK2): > 1 µM

Structure (SMILES): CCc1cc(N2CC(C(=O)NCC#N)C2)ncc1N(C)c1cc2c(cn1)ncn2C [Compound 401, 1-{4-Ethyl-5-[methyl-(1-methyl-1H-imidazo[4,5-c]pyridin-6-yl)-amino]-pyridin-2-yl}-azetidine-3-carboxylic acid cyanomethyl-amide]
- IC50 (human JAK2): 501 to 1000 nM
- IC50 (human JAK3): > 1 µM
- IC50 (human JAK1): 101 to 500 nM
- IC50 (human TYK2): > 1 µM

Structure (SMILES): CN(c1cc2c(cn1)ncn2C)c1c(F)cc(C#N)cc1F [Compound 403, 3,5-Difluoro-4-[methyl-(1-methyl-1H-imidazo[4,5-c]pyridin-6-yl)-amino]-benzonitrile]
- IC50 (human JAK2): > 1000 nM
- IC50 (human JAK3): > 1 µM
- IC50 (human JAK1): 501 to 1000 nM
- IC50 (human TYK2): > 1 µM

Structure (SMILES): CN(c1cc2c(cn1)ncn2C)c1c(F)cc(C2CN(C(=O)OC(C)(C)C)C2)cc1F [Compound 408, 3-{3,5-Difluoro-4-[methyl-(1-methyl-1H-imidazo[4,5-c]pyridin-6-yl)-amino]-phenyl)-azetidine-1-carboxylic acid tert-butyl ester]
- IC50 (human JAK2): > 1000 nM
- IC50 (human JAK3): > 1 µM
- IC50 (human JAK1): > 1000 nM
- IC50 (human TYK2): > 1 µM
